This test concerns the target T1, Diphosphomevalonate decarboxylase (Streptococcus pneumoniae serotype 2 (strain D39 / NCTC 7466), UniProt A0A0H2ZN59).
T1 sequence (A0A0H2ZN59 whole entry): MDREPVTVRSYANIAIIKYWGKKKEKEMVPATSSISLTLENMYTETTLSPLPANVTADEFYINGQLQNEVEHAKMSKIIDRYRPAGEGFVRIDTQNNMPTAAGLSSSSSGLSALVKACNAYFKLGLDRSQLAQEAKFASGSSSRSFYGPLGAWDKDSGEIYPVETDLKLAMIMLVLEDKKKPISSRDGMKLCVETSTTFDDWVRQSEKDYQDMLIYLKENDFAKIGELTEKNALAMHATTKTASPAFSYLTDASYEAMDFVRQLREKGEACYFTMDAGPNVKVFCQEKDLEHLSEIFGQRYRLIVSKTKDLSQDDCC
The test is described as follows: diphosphomevalonate decarboxylase inhibition dose curves – biochemical, PK/LDH-coupled NADH fluorescence, hexokinase coupling counter-screen, dose response (AID 550). A general note: The purpose of a counterscreen is to sort out artefacts and off-target activity.

The mark [1] stands for this setting: inactive by the depositor's call.

Structures can show the parent of a compound that is named as a salt.

For `COc1cc(NC(=O)c2cccs2)c(C(=O)OCC(=O)NCc2ccco2)cc1OC` [4,5-dimethoxy-2-(2-thenoylamino)benzoic acid [2-(2-furfurylamino)-2-keto-ethyl] ester], the IC50 is > 10000 µM.

Turning to `COC(=O)c1cc(OC)c(OC)cc1NC(=O)c1oc2ccccc2c1C` [4,5-dimethoxy-2-[(3-methylbenzofuran-2-carbonyl)amino]benzoic acid methyl ester], the IC50 was > 10000 µM.

Take `Cc1cnc(SCCc2ccncc2)nc1C` [4,5-dimethyl-2-(2-pyridin-4-ylethylsulfanyl)pyrimidine;hydrochloride]: the IC50 is > 10000 µM.

`CCOC(=O)c1c(Nc2nc(C)c(C(=O)NC)s2)sc(C)c1C` [4,5-dimethyl-2-[[4-methyl-5-(methylcarbamoyl)-2-thiazolyl]amino]-3-thiophenecarboxylic acid ethyl ester]: the concentration for half-maximal inhibition (IC50) was > 10000 µM.

`COc1ccccc1NC(=O)C1=C(C)N=C2CCCC(=O)C2C1c1ccc2c(c1)OCO2` (stereo not drawn) [4-(1,3-benzodioxol-5-yl)-N-(2-methoxyphenyl)-2-methyl-5-oxo-4,6,7,8-tetrahydro-1H-quinoline-3-carboxamide] displayed an IC50 of 76.3 µM.

`Cc1noc(C)c1CSc1nc2ccccc2s1` [4-(1,3-benzothiazol-2-ylsulfanylmethyl)-3,5-dimethyl-1,2-oxazole]: the IC50 is > 10000 µM.

In the case of `Cn1c(-c2ccc(N)cc2)nc2ccccc21` [4-(1-methyl-2-benzimidazolyl)aniline], the IC50 is > 10000 µM.

`Cn1c(N2CCOCC2)nc(-c2ccccc2)c1-c1ccccc1` [4-(1-methyl-4,5-diphenyl-2-imidazolyl)morpholine] showed a concentration for half-maximal inhibition (IC50) of 40.8 µM.

For the compound `CCCCC(=O)Nc1ccc(C(N)=O)cc1` [4-(1-oxopentylamino)benzamide], the IC50 is > 10000 µM.

`Cc1cc(C)n2nc3nc(N4CCCCC4)nc(-c4ccco4)c3c2n1` [4-(2-furyl)-6,8-dimethyl-2-piperidin-1-ylpyrimido[4',5':3,4]pyrazolo[1,5-a]pyrimidine] returned an IC50 of 111 µM.

`COC(=O)c1cc(Cl)c(NS(=O)(=O)c2ccccc2)cc1OC` [4-(benzenesulfonamido)-5-chloro-2-methoxy-benzoic acid methyl ester] gave an IC50 of 32.2 µM.

`CCOC(=O)N1CCN(C(=O)c2cn(CC)c3cc(N4CCN(C)CC4)c(F)cc3c2=O)CC1` [4-[1-ethyl-6-fluoro-4-keto-7-(4-methylpiperazino)quinoline-3-carbonyl]piperazine-1-carboxylic acid ethyl ester;hydrochloride] returned a concentration for half-maximal inhibition (IC50) of 50.6 µM.

Consider `O=C(CN1CCCC1)N1CCCc2c1c(=O)oc1ccc(OCc3ccccc3)cc21` [4-[1-oxo-2-(1-pyrrolidinyl)ethyl]-9-phenylmethoxy-2,3-dihydro-1H-[1]benzopyrano[3,4-b]pyridin-5-one], for which the concentration for half-maximal inhibition (IC50) came to 24.7 µM.

For the compound `COC(=O)c1cc2occc2n1CC(=O)Nc1ccc(OC)c(OC)c1OC` [4-[2-keto-2-(2,3,4-trimethoxyanilino)ethyl]furo[3,2-b]pyrrole-5-carboxylic acid methyl ester], the concentration for half-maximal inhibition (IC50) is > 10000 µM.

Take `COc1ccccc1-c1nnc2sc(-c3ccc(N(C)C)cc3)nn12` [4-[3-(2-methoxyphenyl)-[1,2,4]triazolo[3,4-b][1,3,4]thiadiazol-6-yl]-N,N-dimethyl-aniline]: the IC50 worked out at 16.3 µM.

The compound `CCOC(=O)N1CCN(C(=O)CCc2c(C)nc3c(c(C)nn3-c3ccc(C)c(C)c3)c2C)CC1` [4-[3-[1-(3,4-dimethylphenyl)-3,4,6-trimethyl-5-pyrazolo[3,4-b]pyridinyl]-1-oxopropyl]-1-piperazinecarboxylic acid ethyl ester] returned a half-maximal inhibitory concentration (IC50) of 27.8 µM.

Compound `CCOC(=O)N1CCC(NC(=O)CSc2cc(=O)n(C)c3ccccc23)CC1` [4-[[2-[(1-methyl-2-oxo-4-quinolinyl)thio]-1-oxoethyl]amino]-1-piperidinecarboxylic acid ethyl ester] showed an IC50 of 399 µM.

Turning to `CCN(CC)c1ccc(C=Nn2c(=S)[nH]nc(C)c2=O)cc1` [4-[[4-(diethylamino)phenyl]methylideneamino]-6-methyl-3-sulfanylidene-2H-1,2,4-triazin-5-one], under setting [1], the 50% inhibitory concentration (IC50) was determined as 20.2 µM.

`COC(=O)c1ccc(Nc2cc(C)nc(-c3ccccc3O)n2)cc1` [4-[[(2E)-2-(6-ketocyclohexa-2,4-dien-1-ylidene)-6-methyl-1H-pyrimidin-4-yl]amino]benzoic acid methyl ester] came in with a concentration for half-maximal inhibition (IC50) of 18.6 µM.

In the case of `Nc1cccc2c1C(=O)N(c1ccccc1)C2=O` [4-azanyl-2-phenyl-isoindole-1,3-dione], under setting [1], the half-maximal inhibitory concentration (IC50) is 60.5 µM.

Consider `CCOc1ccc(C(=O)O)cc1OC` [4-ethoxy-3-methoxy-benzoic acid], for which the 50% inhibitory concentration (IC50) was > 10000 µM.

For the compound `CCOC(=O)c1cc2c(=O)n(C)c3ccccc3c2s1` [4-keto-5-methyl-thieno[3,2-c]quinoline-2-carboxylic acid ethyl ester], the IC50 was > 10000 µM.

`Cc1cc(=O)oc2ccc(OCC(=O)N3CCC(C)CC3)cc12` [4-methyl-6-[2-(4-methyl-1-piperidinyl)-2-oxoethoxy]-1-benzopyran-2-one] came in with an IC50 of 213 µM.

Take `O=C(NCc1cccnc1)c1ccc2c(=O)n(CCCN3CCCC3=O)c(=S)[nH]c2c1` [4-oxidanylidene-3-[3-(2-oxidanylidenepyrrolidin-1-yl)propyl]-N-(pyridin-3-ylmethyl)-2-sulfanylidene-1H-quinazoline-7-carboxamide]: the half-maximal inhibitory concentration (IC50) is > 10000 µM.

Consider `Cc1c2ccncc2c(C)c2c1[nH]c1ccccc12` [5,11-dimethyl-2H-pyrido[4,3-b]carbazole], for which half-maximal inhibition (IC50) was put at 119 µM.

As for `COCCNC(=O)c1cnn2c(C(F)(F)F)cc(-c3ccc4c(c3)OCO4)nc12` [5-(1,3-benzodioxol-5-yl)-N-(2-methoxyethyl)-7-(trifluoromethyl)-3-pyrazolo[1,5-a]pyrimidinecarboxamide], the IC50 was > 10000 µM.

For `Cc1c(C(=O)NC2CC2)oc2ccc(S(=O)(=O)N3CCCCCC3)cc12` [5-(1-azepanylsulfonyl)-N-cyclopropyl-3-methyl-2-benzofurancarboxamide], the IC50 is > 10000 µM.

In the case of `Cc1cccc(Nc2nnc(S)s2)c1C` [5-(2,3-dimethylanilino)-3H-1,3,4-thiadiazole-2-thione], half-maximal inhibition (IC50) required 188 µM.

`COc1ccc(-c2nnc(Nc3nc4c(OC)cccc4s3)o2)c(OC)c1` [5-(2,4-dimethoxyphenyl)-N-(4-methoxy-1,3-benzothiazol-2-yl)-1,3,4-oxadiazol-2-amine] yielded an IC50 of 6.62 µM.

In turn, `Cc1ccccc1Cn1cc(NC(=O)c2cc3nc(-c4ccco4)cc(C(F)(F)F)n3n2)cn1` [5-(2-furanyl)-N-[1-[(2-methylphenyl)methyl]-4-pyrazolyl]-7-(trifluoromethyl)-2-pyrazolo[1,5-a]pyrimidinecarboxamide] registered a half-maximal inhibitory concentration (IC50) of 31.4 µM.

`COc1ccc(C2CC(c3cccc(C)c3)n3nc(N)nc3N2)cc1` (stereo not drawn) [5-(4-methoxyphenyl)-7-(3-methylphenyl)-1,5,6,7-tetrahydro-[1,2,4]triazolo[1,5-a]pyrimidin-2-amine]: the half-maximal inhibitory concentration (IC50) is > 10000 µM.

Regarding `c1ccc(-c2nc3nonc3c3nc4ccccc4n23)cc1` [5-Phenyl-2-oxa-1,3,4,5a,10-pentaaza-cyclopenta[a]fluorene], the IC50 is > 10000 µM.

`COC(=O)c1cc(NCc2c(F)cccc2Cl)ccc1N1CCOCC1` [5-[(2-chloro-6-fluoro-benzyl)amino]-2-morpholino-benzoic acid methyl ester] gave an IC50 of 80.4 µM.

On to `COC(=O)c1ccc(COc2ccc3c4c(c(=O)oc3c2)CCC4)o1` [5-[(4-keto-2,3-dihydro-1H-cyclopenta[c]chromen-7-yl)oxymethyl]furan-2-carboxylic acid methyl ester], for which the midpoint of inhibition, the IC50, lay at 97.1 µM.

For the compound `COc1cc(CNc2ccc(N3CCOCC3)c(C(=O)O)c2)ccc1OCC(N)=O` [5-[[4-(2-amino-2-keto-ethoxy)-3-methoxy-benzyl]amino]-2-morpholino-benzoic acid], 65.5 µM corresponded to half-maximal inhibition (IC50).

Compound `COc1ccc(NC(=O)c2nnn(Cc3ccc(SC)cc3)c2N)c(OC)c1` [5-amino-N-(2,4-dimethoxyphenyl)-1-[(4-methylsulfanylphenyl)methyl]triazole-4-carboxamide] gave a half-inhibitory concentration (IC50) of 28.5 µM.

As to `CCOC(=O)c1cncc(NC(=O)c2ccccc2)c1` [5-benzamido-3-pyridinecarboxylic acid ethyl ester], the IC50 is > 10000 µM.

For the compound `O=C(Nc1ccc2nn(-c3ccccc3)nc2c1)c1ccc(Br)o1` [5-bromanyl-N-(2-phenylbenzotriazol-5-yl)furan-2-carboxamide], the IC50 turned out to be 32.6 µM.

Regarding `CSc1ncc(Cl)c(C(=O)Nc2nnc(SC)s2)n1` [5-chloranyl-2-methylsulfanyl-N-(5-methylsulfanyl-1,3,4-thiadiazol-2-yl)pyrimidine-4-carboxamide], the 50% inhibitory concentration (IC50) is > 10000 µM.

For `COC(=O)c1[nH]c2ccc(Cl)cc2c1NC(=O)CCN1CCOCC1` [5-chloro-3-[[3-(4-morpholinyl)-1-oxopropyl]amino]-1H-indole-2-carboxylic acid methyl ester], the midpoint of inhibition, the IC50, lay at 149 µM.

Consider `CCc1ccc(S(=O)(=O)NCc2cn3ccsc3n2)s1` [5-ethyl-N-(6-imidazo[2,1-b]thiazolylmethyl)-2-thiophenesulfonamide], for which the IC50 was > 10000 µM.

In the case of `CCOC(=O)c1[nH]c2ccc(OC)cc2c1NC(=O)CN1CCN(c2ccccn2)CC1` [5-methoxy-3-[[1-oxo-2-[4-(2-pyridinyl)-1-piperazinyl]ethyl]amino]-1H-indole-2-carboxylic acid ethyl ester], the IC50 is > 10000 µM.

The compound `Cc1nc(NCCN)c(C#N)c2c1COC(C)(C)C2` [6-(2-aminoethylamino)-3,3,8-trimethyl-1,4-dihydropyrano[3,4-c]pyridine-5-carbonitrile] registered an IC50 of 73.8 µM.

Broadly, the IC50 is the midpoint of a concentration-inhibition curve. Low values mean greater potency, high ones weaker potency.

For the origin of these results see BindingDB's records for doi:10.7270/Q2N014XN (Srmlsc, 2007).
